Experimental data reported in paper PMC8080777, “Discovery, optimization, and evaluation of non-bile acid FXR/TGR5 dual agonists” (Scientific Reports, 2021).

Target: T1, FXR (Homo sapiens, UniProt Q96RI1)
T1 construct: host or cells: CHO cells
T1 sequence (Q96RI1 1-486): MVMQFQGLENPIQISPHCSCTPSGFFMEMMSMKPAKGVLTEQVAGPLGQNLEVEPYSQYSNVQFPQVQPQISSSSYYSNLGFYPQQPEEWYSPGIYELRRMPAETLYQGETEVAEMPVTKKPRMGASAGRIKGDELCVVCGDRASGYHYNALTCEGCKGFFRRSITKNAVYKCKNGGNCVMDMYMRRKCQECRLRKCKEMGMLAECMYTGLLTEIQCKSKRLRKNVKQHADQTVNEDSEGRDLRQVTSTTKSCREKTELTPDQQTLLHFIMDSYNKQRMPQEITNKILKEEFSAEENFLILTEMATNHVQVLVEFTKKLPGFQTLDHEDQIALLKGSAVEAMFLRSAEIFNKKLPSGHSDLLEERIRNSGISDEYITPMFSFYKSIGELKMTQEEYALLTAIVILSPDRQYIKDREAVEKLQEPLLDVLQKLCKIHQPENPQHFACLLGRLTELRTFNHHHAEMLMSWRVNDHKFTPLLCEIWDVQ
Assay: CHO cell-based FXR luciferase reporter assay (Indigo Biosciences)
Details: for EC50: 4 parameter logistic fit; for Emax: CHO

FXR agonist activity (in words) | FXR Efficacy (%) (0.1 µM) (% vs OCA 1 µM as 100%) | FXR Efficacy (%) (1 µM) (% vs OCA 1 µM as 100%) | EC50 [nM] | Emax [%] | FXR Efficacy (%) (10 µM) (10 µM, % vs OCA 1 µM as 100%) | Compound
strong dual agonist potencies | 85.7 | 79.6 | 79 | 33 | – | COc1ccc(C23CCC(CN(C(=O)c4ccncc4C)c4cc(Cl)cc(Cl)c4)(CC2)CC3)cc1C#N [Compound 20q]
– | 12.8 | 96.6 | – | – | 130.9 | COC(=O)/C=C/c1cccc(N(Cc2ccc(-c3ccc(N(C)C)cc3)cc2)C(=O)C2CCCCC2)c1 [Compound 7, Fexaramine, reference compound]
strong dual agonist potencies | 57.1 | 98.8 | 190 | 28 | – | COc1cc(Cl)cc(N(CC23CCC(c4ccc(OC)c(C#N)c4)(CC2)CC3)C(=O)c2ccncc2C)c1 [Compound 20p]
